Results: patent publication US20180311342A1, “IMMUNOSTIMULATING AGENT” (AJINOMOTO CO., INC., priority 2017, published 2018)

Assays:
[1] = tested on: anti-OVA-specific IgG2a subclass antibody; experiment: Adjuvant activity test: anti-OVA-specific IgG2a subclass antibody in serum of OVA-immunized mice (ELISA); type: in vivo, BALB/c mice; conditions: after secondary immunization, serum 2 weeks later; OVA 5 μg + compound 0.256 μmol in 5% αCD-added saline (Addavax mixed with saline at 1:1), dorsal-subcutaneous; compared to OVA single administration group
Procedure: (§1) 8-Week-old female BALB/c mice were divided into groups (N=6), and each group was primarily immunized by dorsal-subcutaneous administration of (1) ovalbumin (OVA) (5 μg) dissolved in saline as an antigen (OVA single administration group), (2) OVA 5 μg and Addavax™ (mixed with saline at 1:1) dissolved in saline (Addavax™ administration group) as positive control adjuvant, (3) OVA 5 μg and SZ137 0.256 μmol dissolved or dispersed in 5% α-cyclodextrin (hereinafter to be simply referred to as αCD)-added saline (SZ137 administration group), (4) OVA (5 μg) and SZ138 (0.256 μmol) dissolved or dispersed in 5% αCD-added saline (SZ138 administration group), (5) OVA (5 μg) and SZ142 (0.256 μmol) dissolved or dispersed in 5% αCD-added saline (SZ142 administration group), (6) OVA (5 μg) and SZ144 (0.256 μmol) dissolved or dispersed in 5% αCD-added saline (SZ144 administration group), (7) OVA (5 μg) and SZ145 (0.256 μmol) dissolved or dispersed in 5% αCD-added saline (SZ145 administration group), (8) OVA (5 μg) and SZ146 (0.256 μmol) dissolved or dispersed in 5% αCD-added saline (SZ146 administration group), (9) OVA (5 μg) and SZ147 (0.256 μmol) dissolved or dispersed in 5% αCD-added saline (SZ147 administration group), (10) OVA (5 μg) and SZ148 (0.256 μmol) dissolved or dispersed in 5% αCD-added saline (SZ148 administration group), each per mouse. Two week later, the secondary immunization was carried out by dorsal-subcutaneous administration of solutions or dispersions similar to those of the above-mentioned (1)-(10) again. Two weeks from the secondary immunization, the whole blood was extracted under anesthesia, and the obtained serum sample was measured for anti-OVA-specific IgG1 subclass antibody, anti-OVA-specific IgG2a subclass antibody, and anti-OVA-specific IgE antibody.
(§2) The measurement method of the anti-OVA-specific IgG1 subclass antibody and anti-OVA-specific IgG2a subclass antibody in Experimental Example 1 and the following Experimental Examples 2-10 is as follows.
(§3) To a 96 well plate was added 5 μg/ml OVA at 100 µl/well, and the mixture was incubated at 4° C. overnight. After incubation, the mixture was washed three times with 200 μl of PBS-T (PBS (phosphate buffered saline)+0.05% (v/v) Tween 20) per well, and blocked with 100 μl of 5% FCS (fetal calf serum)/PBS solution per well at room temperature for 1-2 hr. Thereafter, the mixture was washed three times with PBS-T (200 μl/well), a diluted serum sample (100 l/well) or the same amount of 5% FCS/PBS solution as a control was added, and the mixture was incubated at 37° C. for 1 hr. To calculate concentration of the antibody, the standard of an anti-OVA-specific IgG1 subclass antibody diluted with 2% FCS/PBS solution was added at 100 ng/ml, 50 ng/ml, 25 ng/ml, 12.5 ng/ml, 6.25 ng/ml, 3.125 ng/ml, 1.56 ng/ml, 0.781 ng/ml, 0.391 ng/ml, 0.195 ng/ml, 0.098 ng/ml, 0 ng/ml, per 1 well. When an anti-OVA-specific IgG2a subclass antibody was measured, the standard of an anti-OVA-specific IgG2a subclass antibody was added at 50 ng/ml, 25 ng/ml, 12.5 ng/ml, 6.25 ng/ml, 3.125 ng/ml, 1.56 ng/ml, 0.781 ng/ml, 0.391 ng/ml, 0.195 ng/ml, 0.098 ng/ml, 0.049 ng/ml, 0 ng/ml, per 1 well. Thereafter, similar to the samples, the mixture was washed five times with PBS-T (200 μl/well), a diluted biotinylated anti-mouse IgG1 antibody and IgG2a antibody were added (100 μl/well), and the mixture was incubated at 37° C. for 45 min. Thereafter, the mixture was washed five times with PBS-T (200 μl/well), a diluted anti-biotin-HRP antibody was added (100 μl/well), and the mixture was incubated at 37° C. for another 30 min. Thereafter, the mixture was washed five times with PBS-T (200 μl/well), TMB substrate solution was added (100 μl/well), and the mixture was incubated at room temperature for 10-15 min. Thereafter, a reaction quenching liquid (2N sulfuric acid solution) was added (50 l/well) to discontinue a color developing reaction, and the absorbance (OD Value=450 nm) was measured by a microplate reader. […]

[2] = tested on: anti-OVA-specific IgG1 subclass antibody; experiment: Adjuvant activity test: anti-OVA-specific IgG1 subclass antibody in serum of OVA-immunized mice (ELISA); type: in vivo, BALB/c mice; conditions: after secondary immunization, serum 2 weeks later; OVA 5 μg + compound 0.256 μmol in 5% αCD-added saline (Addavax mixed with saline at 1:1), dorsal-subcutaneous; compared to OVA single administration group
Procedure: as §1, §2, §3

SMILES | anti-OVA-specific IgG2a subclass antibody production [1] | anti-OVA-specific IgG1 subclass antibody production [2]
CCCCCCCCCCCCCCCCOC(=O)N[C@@H](CCCNC(=N)N)C(=O)NCCCCCC.Cl [SZ169, Hexadecyl N-[(1S)-4-guanidino-1-(hexylcarbamoyl)butyl]carbamate hydrochloride] | tended to increase | tended to increase
CCCCCCCCCCCCCCCCCCCCCC(=O)N[C@@H](CCCCNC(=N)N)C(=O)NCCCCCC.Cl [SZ170, N-[(1S)-5-guanidino-1-(hexylcarbamoyl)pentyl]docosanamide hydrochloride] | tended to increase | tended to increase
CCCCCCCCCCCCCCCCCCCC(=O)N[C@@H](CCCNC(=N)N)C(=O)NCCCCCCCCCCCC.Cl [SZ180, N-[(1S)-1-(dodecylcarbamoyl)-4-guanidino-butyl]icosanamide hydrochloride] | significant enhancement | significant enhancement
CCCCCCCCCCCCCCCC(=O)N[C@@H](CCCNC(=N)N)C(=O)NCCCCCCCC.Cl [SZ181, N-[(1S)-4-guanidino-1-(octylcarbamoyl)butyl]hexadecanamide hydrochloride] | showed a tendency to increase | showed a tendency to increase
CCCCCCCCCCCCCCCCCC(=O)N[C@@H](CCCNC(=N)N)C(=O)NCCCCCCCC.Cl [SZ182, N-[(1S)-4-guanidino-1-(octylcarbamoyl)butyl]octadecanamide hydrochloride] | showed a tendency to increase | showed a tendency to increase
CCCCCCCCCCCCCCCCCCCC(=O)N[C@@H](CCCNC(=N)N)C(=O)NCCCCCCCC.Cl [SZ183, N-[(1S)-4-guanidino-1-(octylcarbamoyl)butyl]icosanamide hydrochloride] | significant enhancement | significant enhancement
CCCCCCCCCCCCCCCCCC(=O)N[C@@H](CCCCN)C(=O)NCCCCCCCC.Cl [SZ184, N-[(1S)-5-amino-1-(octylcarbamoyl)pentyl]octadecanamide hydrochloride] | showed a tendency to increase | showed a tendency to increase
CCCCCCCCCCCCCCCCCC(=O)N[C@@H](CCCCN)C(=O)NCCCCCCCCCCCC.Cl [SZ185, N-[(1S)-5-amino-1-(dodecylcarbamoyl)pentyl]octadecanamide hydrochloride] | significant enhancement | significant enhancement
CCCCCCCCCCCCNC(=O)[C@H](CCCNC(=N)N)NC(=O)OCCCCCCCCCCCC.Cl [SZ187, dodecyl N-[(1S)-1-(dodecylcarbamoyl)-4-guanidino-butyl]carbamate hydrochloride] | significant enhancement | showed a tendency to increase
CCCCCCCCCCCCCCCCOC(=O)N[C@@H](CCCCN)C(=O)NCCCCCCCC.Cl [SZ188, hexadecyl N-[(1S)-5-amino-1-(octylcarbamoyl)pentyl]carbamate hydrochloride] | showed a tendency to increase | showed a tendency to increase
CCCCCCCCCCCCCCCCOC(=O)N[C@@H](CCCCN)C(=O)NCCCCCCCCCCCC.Cl [SZ189, hexadecyl N-[(1S)-5-amino-1-(dodecylcarbamoyl)pentyl]carbamate hydrochloride] | significant enhancement | significant enhancement
CCCCCCCCCCCCCCCCNC(=O)NCCCCNC(=N)N.Cl [SZ190, 1-(4-guanidinobutyl)-3-hexadecyl-urea hydrochloride] | showed a tendency to increase | showed a tendency to increase
CCCCCCCCCCCCCCCCCC(=O)N[C@H](CCCNC(=N)N)C(=O)NCCCCCCCCCCCC.Cl [SZ191, N-[(1R)-1-(dodecylcarbamoyl)-4-guanidino-butyl]octadecanamide hydrochloride] | significant enhancement | significant enhancement
CCCCCCCCCCCCCCCCNC(=O)N[C@H](CCCNC(=N)N)C(=O)NCCCCCCCCCCCC.Cl [SZ193, (2R)—N-dodecyl-5-guanidino-2-(hexadecylcarbamoylamino)pentanamide hydrochloride] | showed a tendency to increase | showed a tendency to increase
CCCCCCCCCCCCCCCC(=O)N[C@H](CCCCN)C(=O)NCCCCCCCCCCCC.Cl [SZ194, N-[(1R)-5-amino-1-(dodecylcarbamoyl)pentyl]hexadecanamide hydrochloride] | showed a tendency to increase | showed a tendency to increase
CCCCCCCCCCCCCCCCCC(=O)N[C@@H](CC(C)C)C(=O)NCCCCCCCCCCCC [SZ195, N-[(1S)-1-(dodecylcarbamoyl)-3-methyl-butyl]octadecanamide] | tended to increase | tended to increase
CCCCCCCCCCCCCCCCCC(=O)N[C@@H](CC(C)C)C(=O)NCCCCCCCC [SZ196, N-[(1S)-3-methyl-1-(octylcarbamoyl)butyl]octadecanamide] | tended to increase | significant enhancement
CCCCCCCCCCCCCCCCCCCCCC(=O)N[C@@H](CC(C)C)C(=O)NCCCCCCCCCCCC [SZ197, N-[(1S)-1-(dodecylcarbamoyl)-3-methyl-butyl]docosanamide] | tended to increase | tended to increase
CCCCCCCCCCCCCCCCCCCCCC(=O)N[C@@H](CC(C)C)C(=O)NCCCCCCCC [SZ198, N-[(1S)-3-methyl-1-(octylcarbamoyl)butyl]docosanamide] | tended to increase | tended to increase
CCCCCCCCCCCCCCCC(=O)N[C@@H](CC(C)C)C(=O)NCCCCCCCC [SZ199, N-[(1S)-3-methyl-1-(octylcarbamoyl)butyl]hexadecanamide] | tended to increase | significant enhancement
CCCCCCCCCCCCCCCCNC(=O)N[C@@H](CC(C)C)C(=O)NCCCCCCCC [SZ201, (2S)-2-(hexadecylcarbamoylamino)-4-methyl-N-octyl-pentanamide] | tended to increase | tended to increase
